Experimental findings from BindingDB's records for doi:10.7270/Q2KK9971 (Nmmlsc, 2009) are described below.

The structures appear in SMILES notation.

The target of the assay is T1, GTPase KRas [1-37] (Homo sapiens, UniProt G3V5T7).
T1 construct: 1-37
The experiment in a line: inhibition of fluorescent GTP binding to wild-type Ras – biochemical, pyrazoline analogs, multiplex bead flow cytometry, SAR follow-up (AID 2047).

T1 sequence (G3V5T7 whole entry): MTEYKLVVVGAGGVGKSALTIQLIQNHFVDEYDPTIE

Consider `COc1ccc(C2=NN(c3ccc(Cl)cc3)C(c3ccccc3F)C2)cc1` (stereo not given) [UNM-0000305863], for which the EC50 is over 30 µM.

For `O=S(=O)(O)c1ccc(N2N=C(c3ccccc3)CC2c2ccccc2)cc1` (stereo not given) [UNM-0000305834], the EC50 is over 30 µM. For `Cc1ccccc1[N+]1=N[C-](c2ccccc2)CC1c1cccc([N+](=O)[O-])c1` (stereo not given) [UNM-0000305854] the value was over 30 µM; for `COc1ccc(C2CC(c3cccc(F)c3)=NN2c2ccc(S(N)(=O)=O)cc2)cc1` (stereo not given) [4-[5-(3-fluorophenyl)-3-(4-methoxyphenyl)-3,4-dihydropyrazol-2-yl]benzenesulfonamide], over 30 µM. Compound `COc1ccc(C2CC(c3ccncc3)=NN2c2ccc(S(N)(=O)=O)cc2)cc1` (stereo not given) came in with an EC50 of over 30 µM.

Turning to `NS(=O)(=O)c1ccc(N2N=C(c3ccccc3)CC2c2ccccc2Cl)cc1` (stereo not given) [KUC103446N], the EC50 is over 30 µM. Consider `Cc1ccc(-c2cc(C(F)(F)F)nn2-c2ccc(S(N)(=O)=O)cc2)cc1` [Celecoxib], for which the EC50 was over 30 µM.

Consider `COc1ccc(C2=NN(c3ccc(Cl)c(Cl)c3)C(c3ccc(OC)cc3)C2)cc1` (stereo not given) [2-(3,4-dichlorophenyl)-3,5-bis(4-methoxyphenyl)-3,4-dihydropyrazole], for which the EC50 was over 30 µM. Regarding `COc1ccc(C2CC(c3cccc(C)c3)=NN2c2ccc(S(N)(=O)=O)cc2)cc1` (stereo not given) [UNM-0000306153], the EC50 is over 30 µM. In turn, `COc1ccc(C2=NN(c3ccc(S(N)(=O)=O)cc3)C(c3ccc(OC)cc3)C2)cc1` (stereo not given) [4-[3,5-bis(4-methoxyphenyl)-3,4-dihydropyrazol-2-yl]benzenesulfonamide] registered an EC50 of over 30 µM. For the compound `COc1ccc(C2CC(c3cccnc3)=NN2c2ccc(S(N)(=O)=O)cc2)cc1` (stereo not given), the EC50 is over 30 µM. For `COc1ccc(C2CC(c3ccc(Cl)cc3)=NN2c2ccc(S(N)(=O)=O)cc2)cc1` (stereo not given), the EC50 is over 30 µM. `COc1ccc(C2CC(c3ccccc3Cl)=NN2c2ccc(S(N)(=O)=O)cc2)cc1` (stereo not given) [4-[5-(2-chlorophenyl)-3-(4-methoxyphenyl)-3,4-dihydropyrazol-2-yl]benzenesulfonamide] gave an EC50 of over 30 µM. The same measure for `NS(=O)(=O)c1ccc(N2N=C(c3ccccc3)CC2c2cccc(Cl)c2)cc1` (stereo not given) [UNM-0000306161]: over 30 µM; for `COc1ccc(C2=NN(c3ccccc3)C(c3ccc(OC)c(OC)c3C(=O)O)C2)cc1` (stereo not given) [UNM-0000305848]: over 30 µM; for `COc1ccc(C2CC(c3ccc(N(C)C)cc3)=NN2c2ccc(S(N)(=O)=O)cc2)cc1` (stereo not given) [KUC103422N]: over 30 µM. The same measure for `COc1ccc(C2CC(C)=NN2c2ccc(S(N)(=O)=O)cc2)cc1` (stereo not given) [4-[3-(4-methoxyphenyl)-5-methyl-3,4-dihydropyrazol-2-yl]benzenesulfonamide]: over 30 µM; for `O=[N+]([O-])c1ccc([N+]2=N[C-](c3ccccc3)CC2c2ccc(O)cc2)cc1` (stereo not given) [UNM-0000305838]: over 30 µM. `CN(C)c1ccc(C2CC(c3ccc(Cl)cc3)=NN2c2ccccc2)cc1` (stereo not given) [UNM-0000305847]: the EC50 is over 30 µM.

In the case of `COc1ccc(C2CC(c3ccc(F)cc3)=NN2c2cccc(F)c2)cc1OC` (stereo not given), the EC50 is over 30 µM.
